Test results as given in PubChem BioAssay AID1963837 (Molecular Pharmacology Branch, DTP, NCI, 2024).
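Also: spheroids exposed to drugs for seven days before readout.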

These molecules were tested on 843126-344-R-J1-PDC complex spheroid viability (assay: Anticancer human tumor 843126-344-R-J1-PDC patient-derived melanoma cell line growth inhibition [POLQ]). Details: second compound 0.316 µM; first compound 1 µM; hits give low values.
How it was run: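 Complex spheroid viability model combining PDC tumour cells with endothelial (HUVEC) and MSC stromal cells. Novobiocin, ART-558 or RP6685 were tested singly and in combination with standard and investigational anticancer drugs. Each was titrated in half-log steps from near clinical Cmax, or from 10 microM where Cmax was unknown.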
`C#Cc1c(F)ccc2cc(O)cc(-c3ncc4c(N5CC6CCC(C5)N6)nc(OCC56CCCN5CC(F)C6)nc4c3F)c12` (configuration not stated) + Cc1cccc(N(C)C(=O)C2C(O)CCN2c2nc(C)cc(C(F)(F)F)c2C#N)c1 showed a viability, T/C of 80.2%.
`C=CC(=O)N1CCN(c2nc(=O)n(-c3c(C)ccnc3C(C)C)c3nc(-c4c(O)cccc4F)c(F)cc23)C(C)C1` (configuration not stated) + Cc1cccc(N(C)C(=O)C2C(O)CCN2c2nc(C)cc(C(F)(F)F)c2C#N)c1 was tested, and the viability, T/C was 107%.
With `CC(C)n1c(=O)n(C)c2cnc3cc(F)c(-c4ccc(OCCCN5CCCCC5)nc4)cc3c21` + Cc1cccc(N(C)C(=O)C2C(O)CCN2c2nc(C)cc(C(F)(F)F)c2C#N)c1 the viability, T/C was 89.8%.
In the case of `CCc1cc2c(N3CCc4c(cc(Cn5ccnc5)cc4-c4cn(C)nc4C(F)(F)F)C3=O)cc(C)nc2c(OC)n1` + Cc1cccc(N(C)C(=O)C2C(O)CCN2c2nc(C)cc(C(F)(F)F)c2C#N)c1, the viability, T/C is reported as 72.3%.
With `CCc1cc2c(N3CCc4c(cc(Cn5ccnc5)cc4-c4cn(C)nc4C(F)(F)F)C3=O)ccnc2c(OC)n1` + Cc1cccc(N(C)C(=O)C2C(O)CCN2c2nc(C)cc(C(F)(F)F)c2C#N)c1 the viability, T/C was 78.5%.
For `COc1cc2cc(C(=O)CCC(=O)O)sc2cc1OC` + Cc1cccc(N(C)C(=O)C2C(O)CCN2c2nc(C)cc(C(F)(F)F)c2C#N)c1, the viability, T/C was 96.6%.
Molecule `COc1ccc([C@@H](O)c2cc(-c3ncnc4cc(N5CCOCC5)ccc34)c(F)cc2Cl)nn1` + Cc1cccc(N(C)C(=O)C2C(O)CCN2c2nc(C)cc(C(F)(F)F)c2C#N)c1 has a viability, T/C of 102%.
`O=C(Nc1ccc(O)c(NS(=O)(=O)c2ccc(F)cc2)c1)c1ccc(-c2ccccc2)cc1` + Cc1cccc(N(C)C(=O)C2C(O)CCN2c2nc(C)cc(C(F)(F)F)c2C#N)c1 showed a viability, T/C of 99.2%.

Same assay, conditions: second compound 0.316 µM; first compound 3.16 µM; hits give low values
Work on `C#Cc1c(F)ccc2cc(O)cc(-c3ncc4c(N5CC6CCC(C5)N6)nc(OCC56CCCN5CC(F)C6)nc4c3F)c12` (configuration not stated) + Cc1cccc(N(C)C(=O)C2C(O)CCN2c2nc(C)cc(C(F)(F)F)c2C#N)c1 yielded a viability, T/C of 75.4%.
`C=CC(=O)N1CCN(c2nc(=O)n(-c3c(C)ccnc3C(C)C)c3nc(-c4c(O)cccc4F)c(F)cc23)C(C)C1` (configuration not stated) + Cc1cccc(N(C)C(=O)C2C(O)CCN2c2nc(C)cc(C(F)(F)F)c2C#N)c1 gave a viability, T/C of 84%.
With `CC(C)n1c(=O)n(C)c2cnc3cc(F)c(-c4ccc(OCCCN5CCCCC5)nc4)cc3c21` + Cc1cccc(N(C)C(=O)C2C(O)CCN2c2nc(C)cc(C(F)(F)F)c2C#N)c1 the viability, T/C was 87.2%.
Molecule `CCc1cc2c(N3CCc4c(cc(Cn5ccnc5)cc4-c4cn(C)nc4C(F)(F)F)C3=O)cc(C)nc2c(OC)n1` + Cc1cccc(N(C)C(=O)C2C(O)CCN2c2nc(C)cc(C(F)(F)F)c2C#N)c1 has a viability, T/C of 69.8%.
`CCc1cc2c(N3CCc4c(cc(Cn5ccnc5)cc4-c4cn(C)nc4C(F)(F)F)C3=O)ccnc2c(OC)n1` + Cc1cccc(N(C)C(=O)C2C(O)CCN2c2nc(C)cc(C(F)(F)F)c2C#N)c1 was tested, and the viability, T/C was 69%.
In the case of `COc1cc2cc(C(=O)CCC(=O)O)sc2cc1OC` + Cc1cccc(N(C)C(=O)C2C(O)CCN2c2nc(C)cc(C(F)(F)F)c2C#N)c1, the viability, T/C is reported as 88.8%.
`COc1ccc([C@@H](O)c2cc(-c3ncnc4cc(N5CCOCC5)ccc34)c(F)cc2Cl)nn1` + Cc1cccc(N(C)C(=O)C2C(O)CCN2c2nc(C)cc(C(F)(F)F)c2C#N)c1 showed a viability, T/C of 76.9%.
With `O=C(Nc1ccc(O)c(NS(=O)(=O)c2ccc(F)cc2)c1)c1ccc(-c2ccccc2)cc1` + Cc1cccc(N(C)C(=O)C2C(O)CCN2c2nc(C)cc(C(F)(F)F)c2C#N)c1 the viability, T/C was 84.8%.

Same assay, conditions: second compound 0.316 µM; first compound 10 µM; hits give low values
`C#Cc1c(F)ccc2cc(O)cc(-c3ncc4c(N5CC6CCC(C5)N6)nc(OCC56CCCN5CC(F)C6)nc4c3F)c12` (configuration not stated) + Cc1cccc(N(C)C(=O)C2C(O)CCN2c2nc(C)cc(C(F)(F)F)c2C#N)c1 was tested, and the viability, T/C was 77.4%.
Work on `C=CC(=O)N1CCN(c2nc(=O)n(-c3c(C)ccnc3C(C)C)c3nc(-c4c(O)cccc4F)c(F)cc23)C(C)C1` (configuration not stated) + Cc1cccc(N(C)C(=O)C2C(O)CCN2c2nc(C)cc(C(F)(F)F)c2C#N)c1 yielded a viability, T/C of 69.9%.
Work on `CC(C)n1c(=O)n(C)c2cnc3cc(F)c(-c4ccc(OCCCN5CCCCC5)nc4)cc3c21` + Cc1cccc(N(C)C(=O)C2C(O)CCN2c2nc(C)cc(C(F)(F)F)c2C#N)c1 yielded a viability, T/C of 55.1%.
In the case of `CCc1cc2c(N3CCc4c(cc(Cn5ccnc5)cc4-c4cn(C)nc4C(F)(F)F)C3=O)cc(C)nc2c(OC)n1` + Cc1cccc(N(C)C(=O)C2C(O)CCN2c2nc(C)cc(C(F)(F)F)c2C#N)c1, the viability, T/C is reported as 62.3%.
`CCc1cc2c(N3CCc4c(cc(Cn5ccnc5)cc4-c4cn(C)nc4C(F)(F)F)C3=O)ccnc2c(OC)n1` + Cc1cccc(N(C)C(=O)C2C(O)CCN2c2nc(C)cc(C(F)(F)F)c2C#N)c1 showed a viability, T/C of 61.2%.
For `COc1cc2cc(C(=O)CCC(=O)O)sc2cc1OC` + Cc1cccc(N(C)C(=O)C2C(O)CCN2c2nc(C)cc(C(F)(F)F)c2C#N)c1, the viability, T/C was 89%.
`COc1ccc([C@@H](O)c2cc(-c3ncnc4cc(N5CCOCC5)ccc34)c(F)cc2Cl)nn1` + Cc1cccc(N(C)C(=O)C2C(O)CCN2c2nc(C)cc(C(F)(F)F)c2C#N)c1 was tested, and the viability, T/C was 80.9%.
`O=C(Nc1ccc(O)c(NS(=O)(=O)c2ccc(F)cc2)c1)c1ccc(-c2ccccc2)cc1` + Cc1cccc(N(C)C(=O)C2C(O)CCN2c2nc(C)cc(C(F)(F)F)c2C#N)c1 gave a viability, T/C of 70.2%.

Same assay, conditions: second compound 1 µM; first compound 0.0316 µM; hits give low values
Work on `C#Cc1c(F)ccc2cc(O)cc(-c3ncc4c(N5CC6CCC(C5)N6)nc(OCC56CCCN5CC(F)C6)nc4c3F)c12` (configuration not stated) + Cc1cccc(N(C)C(=O)C2C(O)CCN2c2nc(C)cc(C(F)(F)F)c2C#N)c1 yielded a viability, T/C of 77.1%.
Molecule `C=CC(=O)N1CCN(c2nc(=O)n(-c3c(C)ccnc3C(C)C)c3nc(-c4c(O)cccc4F)c(F)cc23)C(C)C1` (configuration not stated) + Cc1cccc(N(C)C(=O)C2C(O)CCN2c2nc(C)cc(C(F)(F)F)c2C#N)c1 has a viability, T/C of 89.7%.
`CC(C)n1c(=O)n(C)c2cnc3cc(F)c(-c4ccc(OCCCN5CCCCC5)nc4)cc3c21` + Cc1cccc(N(C)C(=O)C2C(O)CCN2c2nc(C)cc(C(F)(F)F)c2C#N)c1 showed a viability, T/C of 98.3%.
`CCc1cc2c(N3CCc4c(cc(Cn5ccnc5)cc4-c4cn(C)nc4C(F)(F)F)C3=O)cc(C)nc2c(OC)n1` + Cc1cccc(N(C)C(=O)C2C(O)CCN2c2nc(C)cc(C(F)(F)F)c2C#N)c1 showed a viability, T/C of 85.4%.
Molecule `CCc1cc2c(N3CCc4c(cc(Cn5ccnc5)cc4-c4cn(C)nc4C(F)(F)F)C3=O)ccnc2c(OC)n1` + Cc1cccc(N(C)C(=O)C2C(O)CCN2c2nc(C)cc(C(F)(F)F)c2C#N)c1 has a viability, T/C of 101%.
For `COc1cc2cc(C(=O)CCC(=O)O)sc2cc1OC` + Cc1cccc(N(C)C(=O)C2C(O)CCN2c2nc(C)cc(C(F)(F)F)c2C#N)c1, the viability, T/C was 81.7%.
In the case of `COc1ccc([C@@H](O)c2cc(-c3ncnc4cc(N5CCOCC5)ccc34)c(F)cc2Cl)nn1` + Cc1cccc(N(C)C(=O)C2C(O)CCN2c2nc(C)cc(C(F)(F)F)c2C#N)c1, the viability, T/C is reported as 79.2%.
`O=C(Nc1ccc(O)c(NS(=O)(=O)c2ccc(F)cc2)c1)c1ccc(-c2ccccc2)cc1` + Cc1cccc(N(C)C(=O)C2C(O)CCN2c2nc(C)cc(C(F)(F)F)c2C#N)c1 showed a viability, T/C of 95.7%.

Same assay, conditions: second compound 1 µM; first compound 0.1 µM; hits give low values
With `C#Cc1c(F)ccc2cc(O)cc(-c3ncc4c(N5CC6CCC(C5)N6)nc(OCC56CCCN5CC(F)C6)nc4c3F)c12` (configuration not stated) + Cc1cccc(N(C)C(=O)C2C(O)CCN2c2nc(C)cc(C(F)(F)F)c2C#N)c1 the viability, T/C was 106%.
`C=CC(=O)N1CCN(c2nc(=O)n(-c3c(C)ccnc3C(C)C)c3nc(-c4c(O)cccc4F)c(F)cc23)C(C)C1` (configuration not stated) + Cc1cccc(N(C)C(=O)C2C(O)CCN2c2nc(C)cc(C(F)(F)F)c2C#N)c1 showed a viability, T/C of 84.7%.
`CC(C)n1c(=O)n(C)c2cnc3cc(F)c(-c4ccc(OCCCN5CCCCC5)nc4)cc3c21` + Cc1cccc(N(C)C(=O)C2C(O)CCN2c2nc(C)cc(C(F)(F)F)c2C#N)c1 gave a viability, T/C of 78%.
For `CCc1cc2c(N3CCc4c(cc(Cn5ccnc5)cc4-c4cn(C)nc4C(F)(F)F)C3=O)cc(C)nc2c(OC)n1` + Cc1cccc(N(C)C(=O)C2C(O)CCN2c2nc(C)cc(C(F)(F)F)c2C#N)c1, the viability, T/C was 89.5%.
Molecule `CCc1cc2c(N3CCc4c(cc(Cn5ccnc5)cc4-c4cn(C)nc4C(F)(F)F)C3=O)ccnc2c(OC)n1` + Cc1cccc(N(C)C(=O)C2C(O)CCN2c2nc(C)cc(C(F)(F)F)c2C#N)c1 has a viability, T/C of 77.3%.
For `COc1cc2cc(C(=O)CCC(=O)O)sc2cc1OC` + Cc1cccc(N(C)C(=O)C2C(O)CCN2c2nc(C)cc(C(F)(F)F)c2C#N)c1, the viability, T/C was 84.2%.
`COc1ccc([C@@H](O)c2cc(-c3ncnc4cc(N5CCOCC5)ccc34)c(F)cc2Cl)nn1` + Cc1cccc(N(C)C(=O)C2C(O)CCN2c2nc(C)cc(C(F)(F)F)c2C#N)c1 showed a viability, T/C of 101%.
Work on `O=C(Nc1ccc(O)c(NS(=O)(=O)c2ccc(F)cc2)c1)c1ccc(-c2ccccc2)cc1` + Cc1cccc(N(C)C(=O)C2C(O)CCN2c2nc(C)cc(C(F)(F)F)c2C#N)c1 yielded a viability, T/C of 88.1%.

Same assay, conditions: second compound 1 µM; first compound 0.316 µM; hits give low values
With `C#Cc1c(F)ccc2cc(O)cc(-c3ncc4c(N5CC6CCC(C5)N6)nc(OCC56CCCN5CC(F)C6)nc4c3F)c12` (configuration not stated) + Cc1cccc(N(C)C(=O)C2C(O)CCN2c2nc(C)cc(C(F)(F)F)c2C#N)c1 the viability, T/C was 82.8%.
`C=CC(=O)N1CCN(c2nc(=O)n(-c3c(C)ccnc3C(C)C)c3nc(-c4c(O)cccc4F)c(F)cc23)C(C)C1` (configuration not stated) + Cc1cccc(N(C)C(=O)C2C(O)CCN2c2nc(C)cc(C(F)(F)F)c2C#N)c1 showed a viability, T/C of 84.2%.
